The values below come from US20240300958A1, “COMPOUNDS AND THE USES AND PHARMACEUTICAL COMPOSITIONS THEREOF” (BEIJING YOUZHUJU NETWORK TECHNOLOGY CO. LTD., priority 2023, published 2024).

The assay deals with DDR1 (Homo sapiens (Human), UniProt Q08345). The assay is described as follows: DDR1 kinase inhibition assay (FAM-labeled peptide), IC50. In kind it is biochemical. The method, then: 1× kinase base buffer (50 mM HEPES, pH 7.5, 0.0015% Brij-35) and a stop buffer (100 mM HEPES, pH 7.5, 0.015% Brij-35, 0.2% Coating Reagent #3, 50 mM EDTA) were prepared for testing kinases.
DDR1, sequence (Q08345 other isoform, or with tags, fused parts or gaps isoform Q08345-2): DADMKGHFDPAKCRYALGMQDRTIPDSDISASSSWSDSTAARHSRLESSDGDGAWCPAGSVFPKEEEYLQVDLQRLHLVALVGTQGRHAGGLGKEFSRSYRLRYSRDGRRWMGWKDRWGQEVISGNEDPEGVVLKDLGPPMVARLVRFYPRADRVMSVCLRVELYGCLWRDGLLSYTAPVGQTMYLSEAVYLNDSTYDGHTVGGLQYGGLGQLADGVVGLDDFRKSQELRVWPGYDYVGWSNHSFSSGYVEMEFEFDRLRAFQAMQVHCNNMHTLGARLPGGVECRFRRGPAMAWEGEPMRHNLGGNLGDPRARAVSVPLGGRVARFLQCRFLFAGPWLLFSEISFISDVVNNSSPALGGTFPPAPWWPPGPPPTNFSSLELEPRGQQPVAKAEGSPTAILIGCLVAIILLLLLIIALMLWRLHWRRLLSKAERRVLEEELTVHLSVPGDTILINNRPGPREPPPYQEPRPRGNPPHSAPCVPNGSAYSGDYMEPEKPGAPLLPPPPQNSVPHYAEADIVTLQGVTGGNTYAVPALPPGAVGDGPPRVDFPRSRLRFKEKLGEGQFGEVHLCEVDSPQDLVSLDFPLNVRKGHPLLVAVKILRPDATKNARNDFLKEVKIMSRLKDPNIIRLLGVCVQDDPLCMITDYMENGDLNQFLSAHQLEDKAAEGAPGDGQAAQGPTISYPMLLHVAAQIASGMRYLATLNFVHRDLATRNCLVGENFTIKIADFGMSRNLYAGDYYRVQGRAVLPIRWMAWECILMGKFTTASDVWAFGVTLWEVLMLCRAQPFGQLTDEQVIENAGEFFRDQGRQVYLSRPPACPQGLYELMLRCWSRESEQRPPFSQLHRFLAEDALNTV
The compounds were diluted with 100% DMSO to 100 times the highest final inhibitor concentration required in the reaction. 100 μl of dilution of the compound was transferred to wells of a 96-well plate. For example, 100000 nM solution of the compound in DMSO was prepared in this step in case that an inhibitor concentration of 1000 nM is required. 100 μl of 100% DMSO was added to two empty wells of a 96-well plate for no compound control and no enzyme control. This plate was labeled as the source plate. A new 96-well plate with 5 μl of compound transferred from the source plate is used as an intermediate plate. 95 μl of 1× kinase buffer was added to each well of the intermediate plate. The compounds in the intermediate plate was mixed on a shaker for 10 minutes.
5 μl of sample in each well from the 96-well intermediate plate was transferred to the 384-well plate in duplicate. For example, well A1 of the 96-well plate was transferred to wells A2 and A1 of the 384-well plate, and well A2 of the 96-well plate was transferred to wells A3 and A4 of the 384-well plate, and so forth. 2.5× enzyme solution was prepared: 1× kinase basal buffer with added kinase. 2.5× peptide solution was prepared: 1× kinase basal buffer with added FAM-labeled peptide and ATP. To an assay plate already contained 5 μl of 10% dimethyl sulfoxide compound, 2.5× enzyme solution was transferred, and each well of the 384-well assay plate was added 10 μl of 2.5× enzyme solution. After incubation at room temperature for 10 minutes, 2.5× peptide solution was transferred to the assay plate. Each well of the 384-well assay plate was added 10 μl of 2.5× peptide solution. Kinase reaction and termination: incubation at 28° C. for a specified period followed by the addition of 25 μl stop buffer to stop the reaction. The data was read and collected.
Turning to `Cc1ccc(C(=O)Nc2ccccn2)cc1C#Cc1cnc2cc(C3CCCCC3)cnn12` [Compound C2], the half-maximal inhibitory concentration (IC50) was less than 500 nM.
With `Cc1ccc(C(=O)Nc2ccccn2)cc1C#Cc1cnc2cc(C3C=CCCC3)cnn12` (stereo not drawn) [Compound C3], the IC50 is less than 500 nM.
`Cc1ccc(C(=O)Nc2ccccn2)cc1C#Cc1cnc2cc(C3CC=CCC3)cnn12` (stereo not drawn) [Compound C4]: the concentration for half-maximal inhibition (IC50) was less than 500 nM.
The figure for `Cc1ccc(C(=O)Nc2ccccn2)cc1C#Cc1cnc2cc(C3CCCC3)cnn12` [Compound C5] is less than 500 nM.
Regarding `Cc1ccc(C(=O)Nc2ccccn2)cc1C#Cc1cnc2cc(C3=CCCC3)cnn12` [Compound C6], the half-inhibitory concentration (IC50) was less than 500 nM.
As to `Cc1ccc(C(=O)Nc2ccccn2)cc1C#Cc1cnc2cc(C3C=CCC3)cnn12` (stereo not drawn) [Compound C7], the half-inhibitory concentration (IC50) is less than 500 nM.
As to `Cc1ccc(C(=O)Nc2ccccn2)cc1C#Cc1cnc2cc(C3CC=CC3)cnn12` [Compound C8], the half-inhibitory concentration (IC50) is less than 500 nM.
Consider `CCc1ccc(C(=O)Nc2ccccn2)cc1C#Cc1cnc2cc(C3=CCCCC3)cnn12` [Compound C9], for which the IC50 is less than 500 nM.
As to `CC(C)c1ccc(C(=O)Nc2ccccn2)cc1C#Cc1cnc2cc(C3=CCCCC3)cnn12` [Compound C10], the concentration for half-maximal inhibition (IC50) is less than 500 nM.
For `Cc1ccc(C(=O)Nc2ccccn2)cc1-c1cccc(-c2cnc3cc(C4=CCCCC4)cnn23)c1` [Compound C11] the value was less than 500 nM; for `Cc1cc(-c2cc(C(=O)Nc3ccccn3)ccc2C)cc(-c2cnc3cc(C4=CCCCC4)cnn23)c1` [Compound C12], less than 500 nM; for `O=C(N[C@H]1CC[C@H](O)CC1)c1ccc2ccc(-c3ccc(NC4CCCCC4)cc3)cc2n1` [DC1, reference compound], greater than 1000 nM.

By IC50 is commonly meant the point on the concentration scale where inhibition reaches its midpoint. High values mean lower potency, low ones higher potency.
